Several values for one entry are separate records, joined by “and”; a condition that tells them apart may be missing. Identical values can stand only once.
How the values were obtained:
[1] = Pharmacokinetic (PK) study: blood from cutting tail; type: in vivo, mice; settings: IP 100 mg/kg, estimated
Method: Pharmacokinetic (PK) Study: Blood from Cutting Tail • Method: • Drug-Treatment: • Mice: CD-1 female mice (6-7 weeks, 23-25 g) • mice were injected (IP) with Test drug sample (10 mg/ml, in […] at a dose of 100 mg/kg. • Blood was obtained from a mouse by cut-tail at 0.5, 2 and 4 hours after drug treatments. • At 24 hours after the drug treatment, mice were anesthetized with isoflurane and blood was obtained with cardiac puncture. Animals were then euthanized by cervical dislocation. • Plasma Isolation: • Blood (50-100 ul) was centrifuged (2000 g, 15 minutes). Plasma was collected from the top layer. • 1 volume of plasma was mixed with 3 volume of acetonitrile/0.005% TFA. Mixture was stored in refrigerator overnight. • Sample was centrifuged (16000 g,10 minutes). Supernatant (called Plasma in 75% AN/TFA soluble fractions) was collected and subjected to HPLC analysis. • HPLC Analysis Conditions: • Column: C18 μBondapak • Solvent: 60% acetonitrile/0.005% TFA (Trifluoroacetic acid) • Gradient: isocratic • Flow rate and run time: 1 ml/min for 30 minutes • Detection wavelength: 207 nm • O.D. range: 0.05 full scale • Calculation: • Standard cures of Test Drug is constructed (Area/3000K=1 ug Test Drug) • Area of Test Drug Peak from Sample is Recorded • Amount of Test Drug was calculated according to standard cures.

H460 cells = assay: MTT assay, lung (H460); type: cell-based, human
Method: (§1) Cells. HTB-9 (bladder), HeLa-S3 (cervix), DU145 (prostate), H460 (lung), MCF-7 (breast), K562 (leukemia), HCT116 (colon), HepG2 (liver), U2OS (bone), T98G (brain), SK-MEL-5 (Skin) and OVCAR 3, ES2 (ovary), Pancreas (Capan), Mouth (KB), Kidney (A498).
(§2) MTT Assay. The procedure for MTT assay followed the method described by Carmichael et al. (1987) with modifications. The cells were seeded into a 96-well plate at for 24 hours before drug-treatment. The cells were then exposed to the drugs for 48, 72, or 96 hours. After the drug-treatment, MTT (0.5 mg/mL) was added to cultures and incubated for an hour. The formazan (product of the reduction of tetrazolium by viable cells) formed and was dissolved with DMSO and the O.D. at 490 nm, and was measured by an ELISA reader. The MTT level of the cells before drug-treatment was also measured (T0). The % cell-growth (% G) is calculated as: % G=(TD−T0/TC−T0)×100(1), where TC or TD represents O.D. readings of control or drug-treated cells.
(§3) When T0>TD, then the cytotoxicity (LC) expressed as % of the control is calculated as: % LC=(TD−T0/T0)×100(2).
A. Cells • H460 cells are derived from a Human Lung large cell carcinoma. Cells were grew in RPMI 1640 medium supplemented with 10% FCS, antibiotics and glutamine. 5000 cells were seeded in a well (96-welled plate) for one day before drug-treatment
B. Drug Treatment: • Drug: Tig-S (stored as a 1000× stock solution in DMSO) was used. • Drug concentration used: from 0.15-20 ug/ml. • Drug-treatment was carried out for 1, 2 and 4 days. For the 4 days incubation, cells were fed with fresh medium (with drug) on day 2.
C. At the end of the drug-treatment, cytotoxic test was performed with MTT assay.

ES2 cells = assay: MTT assay, ovary (ES2); type: cell-based, human
Method: as §1, §2, §3
(§4) Experiment 30: A Comparison of Non-Cancerous with Cancer Cells: • Method: A. Cells • WI38 is a Normal Lung fibroblast. Cells were grew in MEM medium supplemented with 10% FCS, antibiotics and glutamine. 20K cells were seeded per well (96-welled plate) for one day before drug-treatment • ES2 is a Ovary Clear cells carcinoma. Cells were grew in RPMI-1640 medium supplemented with 10% FCS, antibiotics and glutamine. 10K cells were seeded per well (96-welled plate) for one day before drug-treatment.
(§5) B. Drug Treatment: • Drug: Tig-S. stored as 1000× stock solution in DMSO. • Drug concentration used: from 0.15-20 ug/ml. • Drug-treatment was carried out for 2 days (ES2) or 6 days (WI38). For the 6 days incubation, cells were fed with fresh medium (with drug) on day 3 and 5.
(§6) C. At the End of the Drug-Treatment, Cytotoxic Test was Performed with MTT Assay.

OVCAR3 = assay: MTT assay, ovary (OVCAR3); type: cell-based
Method: as §1, §2, §3

Capan cells = assay: MTT assay, pancreas (Capan); type: cell-based, human
Method: as §1, §2, §3
A. Cells: Capan cells are derived from Human pancreas carcinoma (pancreas). Cells were grew in RPMI 1640 medium supplemented with 10% FCS, antibiotics and glutamine. […]
C. […] The percentage of drug-treated cells' growth as compared to those of the no drug control is determined.

WI38 cells = assay: MTT assay, normal lung fibroblast (WI38); type: cell-based, human
Method: as §2, §3, §4, §5, §6

[2] = tested on: cancer growth, cancer invasion, cells invasion or cancer cell invasion; assay: Inhibition of cancer growth and invasion (anti-cancer activity); type: cell-based
Source text: The program is based on the purification methods and biological assays including the MTT assay as described in International Application No. PCT/US05/31900, filed Sep. 7, 2005, U.S. Ser. No. 11/289,142, filed Nov. 28, 2005, and U.S. Ser. No. 11/131,551, filed May 17, 2005, and PCT/US2008/002086, 1188-ALA-PCT, filed Feb. 15, 2008, Ser. No. 12/344,682, 1020-B1-US, filed Dec. 29, 2008, US009499577B2, filed Jun. 24, 2014. The details of Analysis of gene expression of ES2 cells after Y-treatment by Microarray, Data Analysis Methods and Western blot in PCT/US2008/002086, 1188-ALA-PCT, filed Feb. 15, 2008, and the cell invasion experiments methods in International Application PCT/US2010/0042240, filed Jul. 16, 2010.

HepG2 = assay: MTT assay, liver (HepG2); type: cell-based
Method: as §1, §2, §3

Structure (SMILES): CC=C(C)C(=O)OCC1(C)C(O)CCC2(C)C1CCC1(C)C2CC=C2C3CC(C)(C)C(O)C(O)C3(COC(=O)C(C)=CC)C(O)CC21C (stereo not drawn) [Tig-R, 24,28-O-Tigloyl-3β,16α,21β,22α,24β,28-hexahydroxyolean-12-ene]
- half-life [1]: about one
- IC50 of lung (H460) (H460 cells): 4.8 µg/mL
- IC50 of ovary (ES2) (ES2 cells): 2.8 ug/ml and about 2.8 ug/ml
- IC50 of ovary (OVCAR3) (OVCAR3): 5.8 µg/mL
- IC50 of pancreas (Capan) (Capan cells): 2.4 µg/mL
- IC50 in normal human fibroblast cells (WI38) (WI38 cells): 10 to 15 µg/mL
- anti-cancer activity [2]: have anti cancer activities
- IC50 of liver (HepG2) (HepG2): 6 µg/mL

Structure (SMILES): CC=C(C)C(=O)OCC1(C)C(O)CCC2(C)C1CCC1(C)C2CC=C2C3CC(C)(C)C(OC(=O)C(C)=CC)C(O)C3(CO)C(O)CC21C (centres unmarked) [Tig-S]
- IC50, inhibition of lung H460 cells growth (H460 cells; 4 days): 3 µg/mL
- IC50, inhibition of H460 cells' growth (H460 cells; Experiment 32, drug-treatment 1, 2 and 4 days): 3 µg/mL
- drug concentration beyond which minimum cells growth inhibition was observed (H460 cells; H460): > 5 µg/mL
- dead cells (H460 cells; H460, drug concentration 20 ug/ml): No dead cell was found
- IC50, inhibition of lung H460 cells growth (H460 cells; one day): 3.4 µg/mL
- IC50, inhibition of ES2 cells (ES2 cells; 2 days): 0.3 µg/mL
- IC100 (100% inhibition of growth, no cell lost) (ES2 cells; ES2): 0.16 to 0.3 µg/mL and 0.15 to 0.3 µg/mL
- % of the control cell growth (ES2 cells; ES2, at 10 ug/ml): 10%
- MTT OD, % of the original value (ES2 cells; ES2, at 10 ug/ml): 12%
- IC50, inhibition of ovarian cancer (OCAR3) cells' growth (OVCAR3): 2.5 µg/mL
- IC50 of ovary (OVCAR3) (OVCAR3): 6.5
- IC50, inhibition of pancreas cancer (Capan) cells' growth (Capan cells; drug-treatment 3 days): about 1 ug/ml
- IC50, inhibition of WI38 cells (WI38 cells; 6 days): 1.5 µg/mL
- % of the control cell growth (WI38 cells; WI38, at 10 ug/ml): about 55%
- MTT OD, % of the original value (WI38 cells; WI38, at 20 ug/ml): about 90%
- cell lost or dead (WI38 cells; WI38, at 20 ug/ml): about 10%
- cells died (WI38 cells; WI38, with 10 ug/ml): 10%
- anti-cancer activity [2]: have anti cancer activities
